According to patent US10881099B2, “Process to improve crop yield” (priority 2016, dated 2021):

What was measured:
[1] = system: azoxystrobin (QoI)-sensitive (S) strains of Colletotrichum acutatum; experiment: Example 2: pre-plant dip of strawberry plants inoculated with azoxystrobin-sensitive isolate, field trial; type: in vivo; settings: for DI: Disease incidence (average) / DS: Disease severity, by ranking (average) 0-4: after four weeks; for W: Weight (average) / Y: Yield (average): after six weeks
[2] = system: azoxystrobin (QoI)-resistant (R) strains of Colletotrichum acutatum; experiment: Example 2: pre-plant dip of strawberry plants inoculated with azoxystrobin-resistant isolate, field trial; type: in vivo; settings: for DI: Disease incidence (average) / DS: Disease severity, by ranking (average) 0-4: after four weeks; for W: Weight (average) / Y: Yield (average): after six weeks
[3] = system: anthracnose (Colletotrichum acutatum), naturally infected plants; experiment: Example 2: pre-plant dip of naturally infected strawberry plants (Nursery 2), field trial; type: in vivo; settings: cv. Portola (Nursery 2); for DI: Disease incidence (average) / DS: Disease severity, by ranking (average) 0-4 / LSI: Leaf spot incidence (average): after four weeks; for W: Weight (average) / Y: Yield (average): after six weeks
Colletotrichum acutatum = experiment: Example 1: pre-plant dip of cv. Portola baby strawberry plants with natamycin, fruit yield after 6 weeks; type: in vivo
Experimental: Baby strawberry plants of cv. Portola were either inoculated or non-inoculated (naturally infected). Inoculation was done by dipping plants for 4 minutes in conidial suspensions of Colletotrichum acutatum, and then drip-dried. Plants were then stored for 8 h at 20° C., or 3 days at 5° C. […] The plants were then planted in different rows for each treatment, one feet apart and the yield was evaluated for fruit yield after 6 weeks. See below Table 1 for results.

[4] = system: mixture of four Colletotrichum acutatum isolates, two sensitive and two resistant to QoI fungicides; experiment: Example 3: dip treatments on Florida Radiance transplants for control of Colletotrichum acutatum; type: in vivo; settings: cv. Florida Radiance; for Plant diameter / Plant diameter compared to the non-treated control (in words): 35 DAP; for Yield (marketable fruit): seven harvests
[5] = system: strawberry plants (two plant cultivars); settings: in vivo
Experimental: Plants were evaluated periodically for disease and phytotoxicity over the course of the trial. As plants develop disease symptoms, fungal isolations were done from diseased tissue to validate the symptoms as anthracnose. For this, pieces of crown and leaf tissues from the margins between diseased and healthy tissue were surface-sterilized with sodium hypochlorite and rinsed with sterile, distilled water. A small sample of this plant tissue was removed, cut into pieces, and plated onto 10-cm potato dextrose agar media plates amended with ampicillin and rifampicin to inhibit bacterial growth. Plates were incubated for 5-6 days at 25° C., and fungal colonies were identified using morphological characteristics. A subset of fungal colonies was confirmed by PCR using species-specific primers for Colletotrichum acutatum (Förster and Adaskaveg, Phytopathology (1999) 89 1056-1065).

[6] = system: fungi within the Ascomycota (e.g. Botrytis and Colletotrichum spp.) and Zygomycota (e.g. Rhizopus stolonifer); settings: for most of these organisms; cited from earlier work
[7] = cv. Fronteras (Nursery 1), 4 min dip, rates/150 gal: Actinovate 24 oz., azoxystrobin 8 fl. oz., Bravo 24 fl. oz., Switch 8 oz.
[8] = cv. Fronteras (Nursery 1), rates/150 gal: Actinovate 24 oz., azoxystrobin 8 fl. oz., Bravo 24 fl. oz., Switch 8 oz.
[9] = cv. Portola (Nursery 1), 4 min dip, rates/150 gal: Actinovate 24 oz., azoxystrobin 8 fl. oz., Bravo 24 fl. oz., Switch 8 oz.
[10] = cv. Portola (Nursery 1), rates/150 gal: Actinovate 24 oz., azoxystrobin 8 fl. oz., Bravo 24 fl. oz., Switch 8 oz.
[11] = 4 min dip, rates/150 gal: Actinovate 24 oz., azoxystrobin 8 fl. oz., Bravo 24 fl. oz., Switch 8 oz.
[12] = rates/150 gal: Actinovate 24 oz., azoxystrobin 8 fl. oz., Bravo 24 fl. oz., Switch 8 oz.
[13] = cv. Fronteras (Nursery 1), natamycin 13.3 oz. per 150 gal.
[14] = cv. Fronteras (Nursery 1), natamycin 26.6 oz. per 150 gal.
[15] = cv. Portola (Nursery 1), natamycin 13.3 oz. per 150 gal.
[16] = cv. Portola (Nursery 1), natamycin 26.6 oz. per 150 gal.
[17] = natamycin 13.3 oz. per 150 gal.
[18] = natamycin 26.6 oz. per 150 gal.
[19] = natamycin 26.6 fl. oz./100 gal. (dipped in the field)
[20] = natamycin 26.6 fl. oz./100 gal. (dipped indoors to avoid sunlight)

CO/C=C(/C(=O)OC)c1ccccc1Oc1cc(Oc2ccccc2C#N)ncn1 [Azoxystrobin]
DI: Disease incidence (average) [1, 7]: 7.5% | DS: Disease severity, by ranking (average) 0-4 [1, 7]: 0.2 | W: Weight (average) [1, 8]: 10.68 g per fruit | Y: Yield (average) [1, 8]: 378.1 g per treated plot | DI: Disease incidence (average) [1, 9]: 33.1% | DS: Disease severity, by ranking (average) 0-4 [1, 9]: 0.8 | W: Weight (average) [1, 10]: 6.4 g per fruit | Y: Yield (average) [1, 10]: 157.7 g per treated plot | DI: Disease incidence (average) [2, 7]: 100.0% | DS: Disease severity, by ranking (average) 0-4 [2, 7]: 2.9 | W: Weight (average) [2, 8]: 7.9 g per fruit | Y: Yield (average) [2, 8]: 16.4 g per treated plot | DI: Disease incidence (average) [2, 9]: 100.0% | DS: Disease severity, by ranking (average) 0-4 [2, 9]: 4.0 | W: Weight (average) [2, 10]: 0.0 g per fruit | Y: Yield (average) [2, 10]: 0.0 g per treated plot | DI: Disease incidence (average) [3, 11]: 41.7% | DS: Disease severity, by ranking (average) 0-4 [3, 11]: 0.5 | LSI: Leaf spot incidence (average) [3, 11]: 0.5 number of spots | W: Weight (average) [3, 12]: 9.8 g per fruit | Y: Yield (average) [3, 12]: 1114.8 g per treated plot

C[C@@H]1C/C=C/C=C/C=C/C=C/[C@H](O[C@@H]2O[C@H](C)[C@@H](O)[C@H](N)[C@@H]2O)C[C@@H]2O[C@](O)(C[C@@H](O)C[C@H]3O[C@@H]3/C=C/C(=O)O1)C[C@H](O)[C@H]2C(=O)O [Natamycin, natamycin]
Average weight per individual strawberry (Colletotrichum acutatum; natamycin 13.3 oz./150 gallon): 8.7 g | Average weight per individual strawberry (Colletotrichum acutatum; natamycin 26.6 oz./150 gallon): 8.7 g | DI: Disease incidence (average) [1, 13]: 37.5% | DS: Disease severity, by ranking (average) 0-4 [1, 13]: 0.8 | DI: Disease incidence (average) [1, 14]: 32.5% | DS: Disease severity, by ranking (average) 0-4 [1, 14]: 0.6 | W: Weight (average) [1, 13]: 8.14 g per fruit | Y: Yield (average) [1, 13]: 161.8 g per treated plot | W: Weight (average) [1, 14]: 8.31 g per fruit | Y: Yield (average) [1, 14]: 161.1 g per treated plot | DI: Disease incidence (average) [1, 15]: 32.5% | DS: Disease severity, by ranking (average) 0-4 [1, 15]: 0.8 | DI: Disease incidence (average) [1, 16]: 27.5% | DS: Disease severity, by ranking (average) 0-4 [1, 16]: 0.4 | W: Weight (average) [1, 15]: 7.9 g per fruit | Y: Yield (average) [1, 15]: 224.1 g per treated plot | W: Weight (average) [1, 16]: 7.0 g per fruit | Y: Yield (average) [1, 16]: 188.4 g per treated plot | DI: Disease incidence (average) [2, 13]: 37.5% | DS: Disease severity, by ranking (average) 0-4 [2, 13]: 0.8 | DI: Disease incidence (average) [2, 14]: 54.2% | DS: Disease severity, by ranking (average) 0-4 [2, 14]: 1.3 | W: Weight (average) [2, 13]: 8.9 g per fruit | Y: Yield (average) [2, 13]: 261.7 g per treated plot | W: Weight (average) [2, 14]: 9.3 g per fruit | Y: Yield (average) [2, 14]: 145.2 g per treated plot | DI: Disease incidence (average) [2, 15]: 82.5% | DS: Disease severity, by ranking (average) 0-4 [2, 15]: 2.2 | DI: Disease incidence (average) [2, 16]: 29.4% | DS: Disease severity, by ranking (average) 0-4 [2, 16]: 0.4 | W: Weight (average) [2, 15]: 7.9 g per fruit | Y: Yield (average) [2, 15]: 112.4 g per treated plot | W: Weight (average) [2, 16]: 8.6 g per fruit | Y: Yield (average) [2, 16]: 235.0 g per treated plot | efficacy when plants are inoculated with azoxystrobin-resistant isolates (in words) ([2]; pre-plant dip): very effective | DI: Disease incidence (average) [3, 17]: 57.5% | DS: Disease severity, by ranking (average) 0-4 [3, 17]: 0.9 | LSI: Leaf spot incidence (average) [3, 17]: 0.6 number of spots | DI: Disease incidence (average) [3, 18]: 53.7% | DS: Disease severity, by ranking (average) 0-4 [3, 18]: 0.7 | LSI: Leaf spot incidence (average) [3, 18]: 0.4 number of spots | W: Weight (average) [3, 17]: 8.7 g per fruit | Y: Yield (average) [3, 17]: 714.4 g per treated plot | W: Weight (average) [3, 18]: 8.7 g per fruit | Y: Yield (average) [3, 18]: 742.5 g per treated plot | Plant diameter [4, 19]: 5.7 bcd in | Plant diameter [4, 20]: 5.9 abc in | Plant diameter compared to the non-treated control (in words) ([4]; natamycin dipped in the field: excepted from the treatments that significantly increased plant diameter): With the exception of natamycin (dipped in the field) | Plant diameter compared to the non-treated control (in words) ([4]; natamycin: treatment dipped indoors): significantly increased plant diameter | Disease incidence (diseased plants, dead+wilted) ([4]; 42 DAP, natamycin 26.6 fl. oz./100 gal. (dipped in the field)): 2.5 de % | Disease incidence (diseased plants, dead+wilted) ([4]; 42 DAP, natamycin 26.6 fl. oz./100 gal. (dipped indoors to avoid sunlight)): 0.0 e % | Disease incidence (diseased plants, dead+wilted) ([4]; 42 DAP, natamycin 26.6 fl. oz./100 gal. (dipped indoors to avoid sunlight), listed as natamycin): 0.0% | Disease incidence compared to the non-treated control (in words) ([4]; 42 DAP, natamycin: both treatments (field and indoors)): reduced disease incidence compared to the non-treated control | Yield compared to the non-treated control (in words) ([4]; natamycin: dipped in the field): higher yields than the non-treated control | Yield (marketable fruit) [4, 19]: 2924 abc lb./A | Yield (marketable fruit) [4, 20]: 2547 bcde lb./A | phytotoxicity [5]: no phytotoxicity is observed | minimum inhibitory concentration [6]: < 10 ppm
